From patent US5130474A, “Optically-active derivatives of (R) 5-pentylamino-5-oxopentanoic acid with antagonistic activity towards cholecystokin in and a method for their preparation” (Rotta Research Laboratorium SpA, priority 1987, dated 1992) come the findings set out here.

Where two headings read alike, the source gives them in different places.

In assay [1] the target is T1, cholecystokinin receptors of ox gallbladder membranes (Bos taurus, UniProt A6QLH2).
T1 construct: The ox gallbladder cell membranes were homogenised with Tris buffer (pH 7.4); from tissue; host or cells: ox gallbladder cell membranes
T1 sequence (A6QLH2 1-427): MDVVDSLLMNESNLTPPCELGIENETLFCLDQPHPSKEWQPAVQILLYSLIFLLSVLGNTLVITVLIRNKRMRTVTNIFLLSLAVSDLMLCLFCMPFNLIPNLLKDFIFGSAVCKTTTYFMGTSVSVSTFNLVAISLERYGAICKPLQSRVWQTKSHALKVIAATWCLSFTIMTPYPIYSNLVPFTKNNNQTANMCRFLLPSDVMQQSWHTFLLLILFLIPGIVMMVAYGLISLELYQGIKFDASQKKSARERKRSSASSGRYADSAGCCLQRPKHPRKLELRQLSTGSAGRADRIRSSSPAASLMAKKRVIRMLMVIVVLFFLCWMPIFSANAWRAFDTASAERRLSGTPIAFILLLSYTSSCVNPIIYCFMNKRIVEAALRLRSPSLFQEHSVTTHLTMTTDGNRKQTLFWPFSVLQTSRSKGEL
Kind of assay: Inhibition of the binding of [125-I]-Bolton Hunter-CCK-8 to ox gallbladder membranes. The note with it: pH 7.4, 2 h at 25° C., read-out: IC50, inhibition of the binding of (^125 I)-(B-H)-CCK-8. Here is the method:
The ox gallbladder cell membranes were homogenised with Tris buffer (pH 7.4) and the homogenate was centrifuged at 50,000 gravity for 10 minutes. The membranes were then incubated with a radioactive tracer and the compounds under study for 2 h at 25° C.
After the supernatant liquid had been discarded, the radioactivity associated with the pellet was determined with a liquid scintillator. The specific binding was determined as the difference between the binding in the absence and in the presence of 10^-6 M CCK-8.

For assay [2], the system named is experimental pancreatitis induced by taurocholate. Kind of assay: Pancreatitis induced by sodium taurocholate. The note with it: for ED50: Rattus norvegicus, ip, 6 h. Type of assay: in vivo, rats. Here is the method: The method described by Aho et al. (Scandinavian J. Gastroenterology 15 (1980), 411-16) was followed
Male rats weighing approximately 250 g were subjected to laparatomy and the pancreas exposed. 0.3 ml of a 6% solution of sodium taurocholate was injected directly into the pancreatic tissue.
The products under test were administered intraperitoneally (i.p.) 30 minutes before the operation and 3 hours after the operation. 6 hours after the laparotomy and after anesthesia with ether, blood was removed from the retro-orbital plexus, the animals were killed and the pancreas removed and weighed. The activity of the serum amylase was determined by the Ceska method (Clin. Chim. Acta 26 (1969), 437-444).
The compounds were tested at different doses so as to enable the calculation of the ID50 value, that is the dose (in mg/kg i.p.) which is able to inhibit the toxic effect of the sodium taurocholate by 50%, expressed both as a % inhibition of the increase in weight of the pancreas and as a % inhibition of the increase in serum amylase.

Assay [3] has as its system piloric contraction induced by CCK. The experiment in a line: Antispastic activity on piloric contraction induced by CCK in rats. The note with it: for ED50: ip, rat, 8 mcg/kg i.p. CCK, compound i.p. 15 minutes before, read-out: ID50, antispastic activity on piloric contraction induced by CCK. Type of assay: in vivo, rat. Here is the method: A dose of 8 mcg/kg i.p. of CCK was used, which induces a sub-maximal contraction of the pilorus.
The antagonistic compounds were administered (i.p.) 15 minutes before the contractant. 10 minutes after the administration of the contractant, the animals were treated per os with 25 ml/kg of H2 O. 5 minutes after this administration, the animals were killed, their stomachs removed and the gastric content measured by removal with a syringe.
The % antispactic activity for each dose administered was calculated from the following formula: [formula] where V1 =the gastric-content volume of the group of animals treated with the drug plus the contractant
V2 =the gastric-content volume of the group of animals treated with the contractant only
V3 =the gastric-content volume of the control group of animals.
The compounds were tested at various doses so as to enable the calculation of the ID50 value, that is the dose (in mg/kg i.p.) which is able to inhibit the contractant effect of CCK by 50%.
The results obtained are given in Table 7, where the effects obtained are expressed as the ID50.

Assay [4] concerns gallbladder contraction induced by egg yolk. Kind of assay: Antispastic activity on the gallbladder in mice (gallbladder emptying induced by egg yolk). It counts as in vivo. Particulars: for ED50: Mus musculus, ip, read-out: ID50, antispastic activity on gallbladder contraction induced by egg yolk. The protocol: The emptying of the gallbladder was induced by a single oral administration of 1 ml of a 30% suspension (weight/volume) of lyophilised egg yolk in a physiological solution.
Once it has been absorbed, the egg yolk, as stated above, induces the release of endogenous CCK.
The antagonist compounds were administered intraperitoneally (i.p.) 15 minutes before the contractant.
The % antispastic activity for each dose was calculated by the following formula: [formula] where P1 =average weight of the gallbladders of the group of animals treated with the drug plus the contractant
P2 =average weight of the gallbladders of the group of animals treated with contractant only
P3 =average weight of the gallbladders of the control group of animals.

[5] abbreviates: 5 mg/kg i.p. (second dose of compound 8) + taurocholate.
Where [6] appears, read: 5 mg/kg i.p. (third dose of compound 8) + taurocholate.
The mark [7] stands for this setting: 30 min before and 3 h after operation, read-out: ID50, inhibition of the increase in serum amylase.
The mark [8] stands for this setting: 30 min before and 3 h after operation, read-out: ID50, inhibition of the increase in weight of the pancreas.
The mark [9] stands for this setting: mice, i.p. 15 minutes before egg yolk.

One may read the IC50 as the concentration at which inhibition is half-maximal. Turning to `CCCCCN(CCOCC)C(=O)[C@@H](CCC(=O)O)NC(=O)c1ccc2ccccc2c1` [Compound 12], the IC50 in assay [1] came to 9.3 nM.
For `CCCCCN(CCCCC)C(=O)[C@@H](CCC(=O)O)NC(=O)c1ccc(Cl)c(Cl)c1` [Compound 8], the “% inhibition increase in amylase” value in assay [2] (1 mg/kg i.p. + taurocholate) was 40.7%; in assay [2] (setting [5]), 76.5%; in assay [2] (setting [6]) it was 86.4%. Further, the figures for the “% inhibition of weight increase (pancreas)” value in assay [2] (1 mg/kg i.p. + taurocholate), in assay [2] (setting [5]) and in assay [2] (setting [6]) were 35.3%, 52.5% and 82.3%, respectively. For the same compound, the figures for the “% ratio pancreas weight / animal weight” value in assay [2] (1 mg/kg i.p. + taurocholate), in assay [2] (setting [5]) and in assay [2] (setting [6]) were 0.48%, 0.45% and 0.40%, respectively. Also, the “Amylase in the serum” value in assay [2] (1 mg/kg i.p. + taurocholate) stood at 12.7 U/ml; in assay [2] (setting [5]) it was 9.8 U/ml; in assay [2] (setting [6]), 9.0 U/ml. For the same compound, the ED50 came out at 1.2 mg/kg in assay [2] (setting [7]), 1.8 mg/kg in assay [2] (setting [8]), 0.11 mg/kg in assay [3] and 0.25 mg/kg in assay [4] (setting [9]). The “% inhibition of piloric contraction” value in assay [3] (0.03 mg/kg i.p.) worked out at 29.8%; in assay [3] (0.1 mg/kg i.p.) it was 48.0%; in assay [3] (0.3 mg/kg i.p.), 68.1%. For the same compound, the “% inhibition of the emptying of the gallbladder” value was 25.2% in assay [4] (0.1 mg/kg i.p.); 86.3% in assay [4] (0.1 mg/kg i.p. as printed (third, highest dose of compound 8)); 53.2% in assay [4] (0.3 mg/kg i.p.). Moreover, in assay [1], the IC50 was determined as 7.5 nM.
For `CCCCCN(CCCCC)C(=O)[C@@H](CCC(=O)O)NC(=O)c1ccc(C)c(C)c1` [Compound 9], the IC50 in assay [1] came to 44 nM.
As for `CCCCCN(CCCCC)C(=O)[C@H](CCC(=O)O)NC(=O)c1ccc2ccccc2c1` [Compound 13], the “% inhibition of piloric contraction” value in assay [3] (1 mg/kg i.p.) was 17.7%; in assay [3] (3 mg/kg i.p.), 39.0%; in assay [3] (5 mg/kg i.p.) it was 54.2%. Further, the ED50 came out at 4.55 mg/kg in assay [3] and 3.2 mg/kg in assay [4] (setting [9]). The “active dose, times higher than compound 7” value in assay [3] (piloric contraction) is “approximately 150 times”. The “% inhibition of the emptying of the gallbladder” value was found to be 18.8% in assay [4] (1 mg/kg i.p.), 47.7% in assay [4] (3 mg/kg i.p.) and 80.2% in assay [4] (9 mg/kg i.p.). For the same compound, in assay [1], the half-maximal inhibitory concentration (IC50) stood at 61 nM.
Take “CCK-8: cold (unmarked) CCK [reference compound]”: in assay [1], the IC50 was 0.2 nM.
On the same count and under the same terms, the value for `CCCCCN(CCCOC)C(=O)[C@@H](CCC(=O)O)NC(=O)c1ccc(Cl)c(Cl)c1` [Compound 11] was 30 nM; that for `CCCCCN(CCCCC)C(=O)[C@H](CCC(=O)O)NC(=O)c1ccc(C)c(C)c1` [Compound 15] was 2200 nM.
Consider `CCCCCN(CCCCC)C(=O)[C@@H](CCC(=O)O)NC(=O)c1ccc2ccccc2c1` [Compound 7], for which the “% inhibition increase in amylase” value in assay [2] (0.3 mg/kg i.p. + taurocholate) is 42.2%; in assay [2] (1 mg/kg i.p. + taurocholate) it was 79.7%; in assay [2] (3 mg/kg i.p. + taurocholate), 89.0%. Further, the “% inhibition of weight increase (pancreas)” value in assay [2] (0.3 mg/kg i.p. + taurocholate) is on record as 36.4%; in assay [2] (1 mg/kg i.p. + taurocholate), 54.5%; in assay [2] (3 mg/kg i.p. + taurocholate) it was 90.8%. Also, the “% ratio pancreas weight / animal weight” value was found to be 0.47% in assay [2] (0.3 mg/kg i.p. + taurocholate), 0.45% in assay [2] (1 mg/kg i.p. + taurocholate) and 0.41% in assay [2] (3 mg/kg i.p. + taurocholate). For the same compound, the “Amylase in the serum” value in assay [2] (0.3 mg/kg i.p. + taurocholate) was 12.0 U/ml; in assay [2] (1 mg/kg i.p. + taurocholate) it was 9.6 U/ml; in assay [2] (3 mg/kg i.p. + taurocholate) it was 9.0 U/ml. Further, the ED50 in assay [2] (both parameters, read-out: dose inhibiting the increase in weight of the pancreas and the increase in serum amylase by 50%) is around 0.5 mg/kg; in assay [2] (setting [7]), 0.4 mg/kg; in assay [2] (setting [8]), 0.6 mg/kg; in assay [3] it was 0.03 mg/kg; in assay [4] (setting [9]), 0.05 mg/kg. Moreover, the “% inhibition of piloric contraction” value in assay [3] (0.01 mg/kg i.p.) amounted to 27.7%; in assay [3] (0.03 mg/kg i.p.) it was 48.8%; in assay [3] (0.1 mg/kg i.p.), 80.8%. Besides, the figures for the “% inhibition of the emptying of the gallbladder” value in assay [4] (0.025 mg/kg i.p.) and in assay [4] (0.05 mg/kg i.p.) were 24.0% and 44.2%, respectively. Besides, the IC50 in assay [1] turned out to be 1 nM.
Turning to `CCCCCN(CCCCC)C(=O)[C@H](CCC(=O)O)NC(=O)c1ccc(Cl)c(Cl)c1` [Compound 14], the IC50 in assay [1] came to 450 nM.
With `COc1ccc(Cc2nccc3cc(OC)c(OC)cc23)cc1OC` [PAPAVERINE, reference compound], the results for the “% inhibition of the emptying of the gallbladder” value in assay [4] (25 mg/kg i.p.), in assay [4] (50 mg/kg i.p.) and in assay [4] (75 mg/kg i.p.) were 0%, 0% and 26.1%, respectively. In addition, the “ID50, antispastic activity on gallbladder contraction induced by egg yolk” value in assay [4] (setting [9]) is on record as “INACTIVE”. Besides, the “antispastic activity on the gallbladder, in words” value in assay [4] (only at 75 mg/kg) was “slightly active”.
For `CCCCCN(CCCOC)C(=O)[C@@H](CCC(=O)O)NC(=O)c1ccc2ccccc2c1` [Compound 10], in assay [1], the concentration for half-maximal inhibition (IC50) came to 6.2 nM.
Consider `CCCCCN(CCCOC)C(=O)[C@H](CCC(=O)O)NC(=O)c1ccc2ccccc2c1` [Compound 16], for which the IC50 in assay [1] came to 560 nM.
